“Also recorded” adds a separate entry of the source. Where two headings read alike, the source gives them in different places. Values belong to the molecule of their own block, whether it stands above or below them.
How the values were obtained:
[1] = system: B16 melanotic melanoma cells; assay: Growth inhibition, B16 melanotic melanoma cells in culture; format: cell-based, murine; conditions: for IC50: Mus musculus, 48 h, RPMI 1640/10% fetal calf serum, 37° C., fresh inhibitor every 12 h, mean ± SD, read-out: IC50, 50% growth inhibition, B16
Experimental: As a consequence, they are the strongest competitive inhibitors of human GlxI yet described, Table 1. […] With both cell lines there was some correlation between the Ki values of the enediol analogs and the IC50 values of the corresponding diethyl esters.
^d Sp-bromobenzylglutathione diethyl ester. Cells were incubated for
48 h in RPMI 1640/10% fetal calf serum (37° C.) in the absence and
in the presence of enzyme inhibitor. After the initial addition of
inhibitor at time zero, fresh inhibitor was added every 12 h in order to
compensate partially for the loss of inhibitor due to spontaneous
hydrolytic deethylation in the growth medium.

L1210 cells [2] = assay: Cell permeability / intracellular appearance of enediol analog in L1210 cells; format: in vitro ADME, murine
Experimental: In order to understand the mechanism of intracellular delivery of the enediol analogs, suspensions of L1210 cells were separately incubated with the diacid 2 and with the corresponding diethyl ester 2(Et)2. The rate of appearance of these species in the intracellular fraction was then monitored as a function of time by reverse-phase HPLC (FIG. 4). […] After 90 minutes, the concentration of 2 decreased, possibly due to a combination of factors including (a) 10-20% cell death over the course of the experiment, (b) hydrolytic deethylation of extracellular 2(Et)2, and (c) GlxII-catalyzed decarbamoylation of intracellular 2.
To suspensions of L1210 cells (~1.5(10^6 cells/ml) in RPMI 1640 medium, containing 10% heat-inactivated fetal calf serum, gentamycin (10 μg/ml) and L-glutamate, at 37° C., were added fixed concentrations of 2a. Aliquots (1 ml) were removed from the cell suspension as a function of time, overlaid onto 0.4 ml of silicone oil (SF-1250 silicone fluids, General Electric Co., Silicone Products Division, Waterford, N.Y.) contained in an eppendorf centrifuge tube and centrifuged at 11,000×g (15 min) at 25° C. The supernatant and silicone oil were decanted from the cell pellet and residual oil removed from the inside of the centrifuge tube with a cotton swab. To the pellet was added 1 ml 70% ethanol in water and the suspension sonicated for 5 minutes. The denatured protein was sedimented by centrifugation (11,000×g, 15 min) and the clear supernatant was removed. The supernatant was brought to dryness under a stream of argon, and the resulting residue was fractionated by reverse-phase HPLC (Waters μBondapak C18, 0.78(30 cm), using a mobile phase composed of methanol:water (1:1) containing 0.25% acetic acid at a flow rate of 2 ml/min. The integrated intensity of the peak corresponding S-(N-p-chlorophenyl-N-hydroxycarbamoyl) glutathione was determined at λ=260 nm. Concentrations were extrapolated from standard curves that were linear in the range 0.1 to 4.0 nmoles (r=0.997).

[3] = Stability in mouse serum/plasma; format: in vitro ADME
L1210 cells [4] = assay: Growth inhibition / cytotoxicity, murine leukemia L1210 cells in culture; format: cell-based; conditions: for IC50: L1210, 48 h
Stability in human serum = format: in vitro ADME
Experimental: To 0.5 ml portions of either human serum or mouse serum, at 37° C., was added compound 2(Et)2 to an initial concentration of approximately 0.15 mM. As a function of time, 0.1 ml aliquots of the incubation mixture were transferred to separate microfuge tubes. The samples were immediately deproteinized by the addition of 70% ethanol (0.9 ml). After incubation for 30 minutes at 37° C., the protein precipitate was sedimented by centrifugation at […]. The supernatants were then fractionated by reverse-phase HPLC, as described above, and the integrated intensities of the peaks corresponding to 2(Et)2 determined. The rate constants for deethylation were calculated from the first-order rate of loss of 2(Et)2 as a function of time.
To identify a murine model suitable for in vivo testing of the GlxI inhibitors, the stability of 2(Et)2 was evaluated in human serum and in serum samples obtained from different strains of tumor-bearing mice. In human serum, 2(Et)2 undergoes slow first-order hydrolysis to a mixture of diacid and monoethyl esters, as monitored by reverse-phase HPLC (FIG. 6). For serum samples obtained from four different individuals, T1/2 =9.1±5.3 hours (n=4). […]

[5] = n-octanol/water partition coefficient
human erythrocyte GlxI = conditions: of the unethylated species with human erythrocyte GlxI (17); read-out: Ki, competitive inhibition constant; cited from earlier work
splenic lymphocytes = assay: Toxicity toward nonproliferating splenic lymphocytes; format: cell-based; conditions: for toxicity to splenic lymphocytes / selectivity in words: L1210 cells versus splenic lymphocytes
Source text: Conditions: See Table 1. Error bars represent standard deviations for triplicate determinations. Different symbols correspond to experiments carried out on different days.
This is illustrated for 2(Et)2 and S-p-bromobenzylglutathionediethyl ester by the dose-response curves of FIG. 3. […] Therefore, tumor cells might not be able to detoxify the inhibitors as rapidly as normal cells. In order to determine whether this could be a factor in the present study, the glyoxalase activities in both L1210 cells and splenic lymphocytes were determined. Indeed, while the GlxI activities in the two cell lines are nearly equal, the GlxII activity in L1210 cells is about 10-fold lower than that in splenic lymphocytes. The activities of GlxI and GlxII in L1210 cells were respectively 0.31±0.03 U/mg and 0.02±0.003 U/mg, while the activities in splenic lymphocytes were respectively 0.36±0.03U/mg and 0.20±0.03 U/mg.

L1210 cells [6] = assay: Cell permeability / intracellular appearance of enediol analog in L1210 cells; format: in vitro ADME, murine; remark: listed apart in the source
[7] = Acyl-interchange reaction with glutathione in a cell-free system; format: physicochemical
Experimental: In principle, an acyl-interchange reaction might serve as the basis of an improved prodrug strategy, provided that the acylating reagent diffuses rapidly across cell membranes and then reacts rapidly with intracellular glutathione to give the enediol analog. Three N-hydroxycarbamate thioethyl esters (2(a-c)) and the corresponding sulfoxides (3(a-c)) were prepared (FIG. 7) and their rates of acyl-interchange with glutathione in a cell free system evaluated (Table II). Sulfoxidation of N,N-di-n-propylcarbamate thioalkyl esters activates these species for acyl-interchange with glutathione. […] The N--OH function appears to inductively activate the sulfoxides for acyl-interchange, as the rate constant for 3a exceeds that of the corresponding N--CH3 derivative 3c by 13-fold. The products of the interchange reactions were confirmed as the corresponding enediol analogs, on the basis that their UV spectra and their migratory properties on a reverse-phase C18 column were identical with those of authentic samples of enediol analog.
Second order rate constants for the
acyl-interchange reactions between glutathione and the list thioesters
CH3 CH2 XC(O)N(Y)Z + GSG ---(k2)--> GSC(O)B(Y)Z +
Conditions: Potassium phosphate buffer (50 mM), pH 7.5, 5% ethanol, […]

[8] = system: rat adrenal pheochromocytoma PC-12 cells; conditions: literature (26); read-out: IC50, growth of PC-12 cells; cited from earlier work
HL60 cells [9] = conditions: cited from earlier work
HL60 cells [10] = conditions: literature (15); cited from earlier work
tumor cells = conditions: literature (5-8); cited from earlier work
human tumor cell lines = conditions: literature; cited from earlier work
GlxII = conditions: cited from earlier work
[11] = Mus musculus, RPMI 1640/10% fetal calf serum, 37° C., fresh inhibitor every 12 h, mean ± SD, read-out: IC50, 50% growth inhibition, L1210

Structure (SMILES): CCOC(=O)CNC(=O)[C@H](CSC(=O)N(O)c1ccc(Cl)cc1)NC(=O)CC[C@H](N)C(=O)OCC [2(Et)2, S-(N-p-chlorophenyl N-hydroxycarbamoyl) glutathione diethyl ester]
growth inhibition / cytotoxicity in words, B16 ([1]; B16 cells in vitro): inhibited the growth
IC50 [1]: 28 ± 7 µM
intracellular uptake in words (L1210 cells [2]; L1210 cells): rapid increase in intracellular [2] during the first 90 min; also recorded: linear function of extracellular [2(Et)2 ] in the range 0.01 to 1.0 mM; also recorded: Only trace amounts of the monoethyl esters and diethyl ester of 2 were found in the intracellular fractions; also recorded: high intracellular concentrations of the corresponding diacid 2
maximum concentration of 2 inside cells versus extracellular concentration of 2(Et)2 (L1210 cells [2]; exceeds extracellular): about three-fold
apparent first order rate constant for diffusion of diethyl ester into L1210 cells (L1210 cells [2]; in vitro, 37° C.): 0.04 min⁻¹
first order rate constant for appearance of 2 inside L1210 cells (L1210 cells [2]; incubated in the presence of 2(Et)2): 2.2 h⁻¹
half-life at 150 µM ([3]; mouse, serum, DBA/2(C57BL/6 mice, n=5, read-out: T1/2 in serum of plasma esterase-deficient mice (converted)): 3.9 ± 0.6 h
half-life at 150 µM ([3]; mouse, serum, DBA/2, C57BL/6, NCr nu/nu and CD2 F1 mice, read-out: T1/2, deethylation in mouse serum): < 0.00833 h
growth inhibition / cytotoxicity in words, L1210 (L1210 cells [4]; L1210 cells in vitro): inhibited the growth
cytotoxicity at 100 µM (L1210 cells [4]; Mus musculus, L1210, 48 h, 100 μM, read-out: killing of L1210 cells): ~100%
IC50 (L1210 cells [4]; [11]): 9.5 ± 3.8 µM
first order rate constant for deethylation in human serum (Stability in human serum; 37° C., FIG. 6): 0.147 ± 0.015 h⁻¹
half-life at 150 µM (Stability in human serum; human, serum, n=4, read-out: T1/2 in human serum (converted)): 9.1 ± 5.3 h
logP [5]: 0.996
Ki (human erythrocyte GlxI): 0.046 µM
decrease in viability of splenic lymphocytes (splenic lymphocytes; 100 μM): less than 50%
toxicity to splenic lymphocytes / selectivity in words (splenic lymphocytes): significantly more toxic to L1210 cells than to splenic lymphocytes

apparent first order rate constant for appearance of enediol analog inside the cells on incubation with sulfoxide (L1210 cells [2]): 1.41±0.03 min^-1
maximum intracellular concentration of inhibitor versus extracellular concentration of sulfoxide (L1210 cells [2]): about 10 -fold
rate of influx of sulfoxide relative to diethyl ester 1(Et)2 (L1210 cells [2]): 35 -fold
time to maximum intracellular concentration of inhibitor (L1210 cells [2]): about 17 minutes
first order rate constant for loss of sulfoxide from serum ([3]; DBA/2 mice, n=3): 0.06 ± 0.01 min⁻¹
half-life ([3]; mouse, serum, DBA/2 mice, n=3, read-out: T1/2 of sulfoxide in serum): 0.217 ± 0.0333 h
Structure (SMILES): CC[S+]([O-])C(=O)N(O)c1ccc(Cl)cc1 (stereo not drawn) [Compound 3a, S-(N-Hydroxy-N-p-chlorophenylcarbamoyl)ethyl sulfoxide]
intracellular uptake in words (L1210 cells [2]): rapid increase in the intracellular concentration of the corresponding enediol analog
reduction of intracellular glutathione concentration (L1210 cells [6]): less than 1%
greater potency of sulfoxide versus diethyl ester (L1210 cells [4]; L1210 cells): 10 -fold
greater potency of sulfoxide versus diethyl ester (L1210 cells [4]; L1210 cells, listed as S-(N-p-chlorophenyl-N-hydroxycarbamoyl)ethylsulfoxide): about 10 -fold
IC50 (L1210 cells [4]; Mus musculus, fresh drug every 12 h, read-out: IC50 toward L1210 cells, sulfoxide): 0.8 ± 0.5 µM
rate constant relative to thioester 2a [7]: exceed by several-fold that with the thioester 2 a
k2, second order rate constant for acyl-interchange with glutathione ([7]; 50 mM potassium phosphate, pH 7.5, 5% ethanol, 25° C.): 30.7 ± 1.2 M⁻¹ s⁻¹
second order rate constant for acyl-interchange reaction ([7]; 100 mM potassium phosphate, 5% ethanol, pH 7.5, 25° C.): 30.7 M⁻¹ s⁻¹
rate constant relative to N--CH3 derivative 3c ([7]; exceeds): 13 -fold

Structure (SMILES): CC(C)OC(=O)CNC(=O)[C@H](CSC(=O)OCC1c2ccccc2-c2ccccc21)NC(=O)CC[C@H](N)C(=O)OC(C)C [S-fluorenylmethoxycarbonyl glutathionediisopropyl ester]
IC50 [8]: 275 µM

Structure (SMILES): N[C@@H](CCC(=O)N[C@@H](CSCc1ccc(Br)cc1)C(=O)NCC(=O)OC1CCCC1)C(=O)OC1CCCC1 [dicyclopentyl ester of S-p-bromobenzylglutathione]
potency relative to the diethyl ester, HL60 (HL60 cells [9]; literature (14)): twice as potent as the diethyl ester
concentration of intracellular methylglyoxal (HL60 cells [10]): increased the measured concentration of intracellular methylglyoxal

Structure (SMILES): CC(=O)C=O [methylglyoxal]
inhibition of tumor cells by exogenous methylglyoxal (tumor cells): selective inhibitory activity toward rapidly proliferating tumor cells versus nonproliferating normal cells in vitro; also recorded: inhibit the growth of tumor cells in tissue culture

IC50 [1]: 15 ± 5 µM
Structure (SMILES): CCOC(=O)CNC(=O)[C@H](CSCc1ccc(Br)cc1)NC(=O)CC[C@H](N)C(=O)OCC [p-BrbzylSG(Et)2, Sp-bromobenzylglutathione diethyl ester, reference compound]
relative potency, B16 ([1]; versus 3(Et)2): about half as potent as 3(Et)2
relative potency, L1210 (L1210 cells [4]; L1210 cells): as potent as 2(Et)2 and 3(Et)2
IC50 (L1210 cells [4]; [11]): 9.8 ± 3.2 µM
toxicity to human tumor cell lines (human tumor cell lines): toxic to a range of different human tumor cell lines in culture
substrate for GlxII in words (GlxII): cannot serve as a substrate for GlxII
IC50 with HL60 cells versus nonproliferating human neutrophils (HL60 cells [9]; lower with HL60, literature (13)): about 5 -fold
Ki (human erythrocyte GlxI): 0.17 µM
toxicity to splenic lymphocytes / selectivity in words (splenic lymphocytes; listed as S-p-Bromobenzylglutathione diethyl ester): selective toxicity
toxicity to splenic lymphocytes / selectivity in words (splenic lymphocytes; listed as S-p-bromobenzylglutathione diethyl ester): significant selective toxicity to L1210 cells
